Measured values taken from patent EP2960339A1, “Method and kit for the identification of glycosyl transferase substrates” (Technische Universität München, priority 2014, dated 2015).
“And” between values parts separate entries of the source, which are not always exact repeats. Identical values can stand only once. Like-named read-outs stand apart in the source and are kept apart here.

Legend:
Assay type in all cases: biochemical
VvGT16 [1] = molecular target: T1, VvGT16 (Vitis vinifera, UniProt F6HTJ4); experiment: Substrate screening, radiochemical activity assay with UDP-[14C]glucose; details: for efficiency of transformation of R- and S-citronellol (in words): radiochemical assays, Figure 12; for relative specific activity: relative to conversion of benzyl alcohol (100 %), extractable radioactivity; for conversion of putative substrate (in words): substrate screening, Figure 3
T1 sequence (F6HTJ4 entry or part of it): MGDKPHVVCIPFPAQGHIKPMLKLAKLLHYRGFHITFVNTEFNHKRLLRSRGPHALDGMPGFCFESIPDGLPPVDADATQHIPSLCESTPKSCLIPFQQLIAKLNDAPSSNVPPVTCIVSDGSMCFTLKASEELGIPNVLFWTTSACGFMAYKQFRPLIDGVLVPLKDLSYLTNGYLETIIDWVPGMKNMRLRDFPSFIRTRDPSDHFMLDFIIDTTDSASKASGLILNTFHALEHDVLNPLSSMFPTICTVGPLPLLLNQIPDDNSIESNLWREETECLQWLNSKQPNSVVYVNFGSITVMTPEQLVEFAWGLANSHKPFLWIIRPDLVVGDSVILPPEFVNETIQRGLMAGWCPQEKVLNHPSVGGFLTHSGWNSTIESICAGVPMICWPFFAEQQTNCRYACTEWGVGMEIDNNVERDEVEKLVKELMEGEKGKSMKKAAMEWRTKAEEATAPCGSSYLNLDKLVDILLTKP
Protocol: (§1) In the initial screening, each reaction mixture (200 µL in total) contained Tris-HCl buffer (100 mM, pH 8, 10 mM 2-mercaptoethanol), 37 pmol UDP-[^14C]glucose (0.01 µCi, Biotrend, Köln, Germany), substrate (50 µL of a 1 mg/mL stock solution) and purified protein (0.5-0.8 µg/µL). The reaction mixture was incubated at 30 °C for 18.5 hours. The assays were stopped by adding 1 µL 24% trichloroacetic acid and extracted with 500 µL water-saturated 1-butanol. The organic phase was mixed with 2 mL Pro Flow P+ cocktail (Meridian Biotechnologies Ltd., Epsom, UK) and radioactivity was determined by liquid scintillation counting (LSC, Tri-Carb 2800TR, Perkin Elmer, Waltham MA, USA). Additionally, negative controls without substrate were performed.
(§2) After determining the optimal conditions for the best substrate of each gene, the substrate screening was repeated under these conditions.
(§3) The alleles of VvGT14a-c, 15a-c and 16 were isolated from V. vinifera cultivars and cloned in the expression vector pGEX-4T-1. The recombinant proteins were expressed with an N-terminal GST-tag, affinity purified and verified by SDS-PAGE and Western Blot using GST-specific antibody. Enzyme activity studies were performed with UDP-[^14C]glucose and various putative substrates (terpenols, flavonoids and different mono-alcohols) that are known to be glycosidically bound and present in grapes (Gunata et al., 1988).

VvGT14a [2] = molecular target: T2, VvGT14a (Vitis vinifera, UniProt F6H0R6); experiment: as above; details: for relative specific activity: relative to conversion of geraniol (100 %), extractable radioactivity; for conversion of putative substrate (in words): substrate screening, Figure 3
T2 sequence (F6H0R6 entry or part of it): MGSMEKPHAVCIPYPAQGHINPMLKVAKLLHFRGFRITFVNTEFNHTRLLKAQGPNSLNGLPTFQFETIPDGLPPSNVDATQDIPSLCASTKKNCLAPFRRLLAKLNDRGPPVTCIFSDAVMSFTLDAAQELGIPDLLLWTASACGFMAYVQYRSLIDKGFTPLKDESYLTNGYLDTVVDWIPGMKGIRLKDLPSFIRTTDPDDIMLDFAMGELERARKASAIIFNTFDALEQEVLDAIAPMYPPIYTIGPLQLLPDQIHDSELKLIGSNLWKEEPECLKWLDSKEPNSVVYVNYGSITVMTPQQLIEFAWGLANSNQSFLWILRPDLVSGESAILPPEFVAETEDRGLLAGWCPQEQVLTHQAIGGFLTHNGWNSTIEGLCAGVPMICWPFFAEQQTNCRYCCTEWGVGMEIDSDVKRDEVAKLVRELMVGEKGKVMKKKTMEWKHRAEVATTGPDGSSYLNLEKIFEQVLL
Protocol: as §1, §2, §3

VvGT14a [3] = molecular target: T2, VvGT14a; details: for Km: monoterpenols at constant UDP-glucose […], UDP-glucose at fixed geraniol 100 µM, Tris-HCl pH 8.5, 30 °C; for kcat: pH 8.5
VvGT15c [4] = molecular target: T3, VvGT15c (Vitis vinifera, UniProt F6GUW0)
T3 sequence (F6GUW0 entry or part of it): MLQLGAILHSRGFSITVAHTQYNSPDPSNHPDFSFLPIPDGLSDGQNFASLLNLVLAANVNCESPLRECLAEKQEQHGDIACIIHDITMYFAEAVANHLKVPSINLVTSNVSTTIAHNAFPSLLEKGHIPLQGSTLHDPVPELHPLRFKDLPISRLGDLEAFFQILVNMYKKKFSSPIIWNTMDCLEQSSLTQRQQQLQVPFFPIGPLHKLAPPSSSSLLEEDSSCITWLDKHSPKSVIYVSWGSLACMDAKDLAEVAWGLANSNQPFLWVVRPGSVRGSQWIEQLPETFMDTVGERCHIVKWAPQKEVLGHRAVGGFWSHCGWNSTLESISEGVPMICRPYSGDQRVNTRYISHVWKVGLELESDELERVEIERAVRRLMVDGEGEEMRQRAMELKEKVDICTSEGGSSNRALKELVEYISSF
Protocol: (§4) The measurements were performed under the following conditions. […] The assay of VvGT15a-c was performed at 30 °C using a Tris-HCl buffer (100 mM, 10 mM 2-mercaptoethanol, pH 7.5) and 10 min (VvGT15c) or 30 min (VvGT15a-b) of incubation for the best substrates. The amount of the purified enzyme and the incubation time were adapted depending on the counting sensibility. The reaction was stopped by adding 1 µL 24% trichloroacetic acid and glucosides were extracted with 100 µL ethyl acetate. Radioactivity was determined by LSC.
(§5) The KM- and vmax-values were calculated from Lineweaver-Burk plots, Hanes-Woolf plots and non-linear fitting of the experimental data.

VvGT15b [5] = molecular target: T4, VvGT15b (Vitis vinifera, UniProt F6GUW0)
T4 sequence (F6GUW0 entry or part of it): as above
Protocol: as §4, §5

VvGT15a [6] = molecular target: T5, VvGT15a (Vitis vinifera, UniProt F6GUW0)
T5 sequence (F6GUW0 entry or part of it): as above
Protocol: as §4, §5

VvGT14a [7] = molecular target: T2, VvGT14a; experiment: Activity based profiling using a physiologic aglycone library (radio-TLC, GC-MS); details: Figure 7
Protocol: For the preparation of aglycone extracts 50 g (fresh weight) grape skins or 4 g (fresh weight) inflorescences of Gewurztraminer Gm 11-18 were ground to a fine powder in liquid nitrogen. The isolation of glycosides was carried out as described above (see metabolite analysis). The methanolic fraction, which was obtained after SPE, was enzymatically hydrolysed. Therefore, the dried sample was dissolved in citric-acid buffer (0.1 M, pH 4), 50 mg AR 2000 (an enzyme preparation with glucosidase activity prepared from Aspergillus niger; DSM Food Specialties Beverage Ingredients, Delft, Netherlands) was added and incubated for 24 h with exclusion of light. The liberated aglycones were extracted by 20 mL methyl-tert-butyl ether and the organic phase was reduced to 1000µL using a gentle stream of nitrogen.
Aliquots of this aglycone extract were incubated with UDP-glucose and various VvGT-enzymes. Optimum conditions at 30 °C for 24 hours were applied. Each solution contained 100 µL purified enzyme, 100-150 µL Tris-HCl buffer (100 mM, pH7.5 or 8.5, 10 mM 2-mercaptoethanol), 37 pmol UDP-[^14C]glucose (0.01 µCi) and 50-100 µL extract (dissolved in methyl-tert-butylether). The buffer was mixed with the extract and the organic solvent was gently vaporized with nitrogen. The missing volume was adjusted with buffer before the enzyme was added. The reaction was stopped by adding 1 µL 24% trichloroacetic acid and extracted with 500 µL ethyl acetate. After termination of the reaction free aglycones, which were not converted by VvGT14 and VvGT15, were measured via SPME-(Solid Phase Microextraction)-GC-MS. These residual, free aglycones were completely removed by extraction with dichloromethane. Enzymatically formed glucosides were extracted by ethyl acetate, which was removed under nitrogen. The residue was dissolved in methanol and analyzed by LC-MS to detect the generated monoterpenol glucosides. Enzymatic hydrolysis of the glucosides was performed using AR 2000 and 2 mL citric-acid-buffer. After hydrolysis, a 100 µL aliquot was used to detect volatile aglycones via SPME-GC-MS. The remaining solution was extracted with methyl-tert-butyl ether and reduced under nitrogen to approximately 200 µL. One µL were measured by GC-MS via liquid injection.
Assays containing UDP-[^14C]glucose and aglycone libraries or substrates were performed as described above and subsequently extracted with 500 µL ethyl acetate. The organic solvent was vaporized and the pellet was re-suspended in 10 µL methanol and was applied on Silica Gel 60 F254 plates (Merck, Darmstadt, Germany). The dried plates were developed in a solvent system chloroform:acetic acid:water (50/45/5, v:v:v). Plates were dried and analyzed by digital autoradiograph (digital autoradiograph, EG&G Berthold, Wildbad, Germany).
An aglycone library of the two tissues was obtained by enzymatic hydrolysis of the glycosides followed by liquid-liquid extraction of the released alcohols and acids. […] The formed glycosides were separated by thin layer chromatography (TLC) and visualized by radiodetection whereas identification could be achieved by LC-MS and NMR analysis and, after hydrolysis, by GC-MS and LC-MS (Figure 6).

VvGT16 [8] = molecular target: T1, VvGT16; experiment: Kinetics (KM, kcat) with UDP-[14C]glucose, liquid scintillation counting; details: monoterpenes at constant UDP-glucose 512.5 µM; UDP-glucose at fixed geraniol 1.25 mM; Tris-HCl pH 8.5, 30 °C
VvGT15c [9] = molecular target: T3, VvGT15c; experiment: Substrate screening, radiochemical activity assay with UDP-[14C]glucose; details: for conversion of putative substrate (in words): substrate screening, Figure 3
Protocol: as §1, §2, §3

VvGT15b [10] = molecular target: T4, VvGT15b; experiment: as above; details: for conversion of putative substrate (in words): substrate screening, Figure 3
Protocol: as §1, §2, §3

VvGT15a [11] = molecular target: T5, VvGT15a; experiment: as above; details: for conversion of putative substrate (in words): substrate screening, Figure 3
Protocol: as §1, §2, §3

[12] = substrates at fixed UDP-glucose 833 µM, UDP-glucose at constant geraniol 1.25 mM, Tris-HCl pH 7.5, 30 °C
[13] = relative to conversion of geraniol (100 %), extractable radioactivity
[14] = citronellol enantiomers, Figure 12, highest level of extractable radioactivity = 100 %

## CC(C)=CCC[C@@H](C)CCO [R-citronellol, (R)-(+)-13-citronellol]
VvGT16 [1]
  efficiency of transformation of R- and S-citronellol (in words): same efficiency

## Oc1cc(O)c2cc(O)c(-c3ccc(O)c(O)c3)[o+]c2c1 [cyanidin]
VvGT14a [2]
  relative specific activity: < 1%

## N#CC(O)c1ccccc1 (centres unmarked) [mandelonitrile]
VvGT14a [2]
  conversion of putative substrate (in words): catalytic activity

## CC(C)=CCC/C(C)=C/CO [Geraniol, (E)-3,7-dimethyl-2,6-octadien-1-ol]
VvGT14a [3]
  Km: 9 ± 1.2 µM
  kcat: 0.02 s⁻¹
VvGT15c [4]
  Michaelis constant, fold greater than the KM values for nerol and S-citronellol: about 2 fold
VvGT15c [4]; pH 7.5
  kcat: 0.17 s⁻¹
VvGT15c [4]; [12]
  Km: 43 µM
VvGT15b [5]
  Michaelis constant, fold greater than the KM values for nerol and S-citronellol: about 2 fold
VvGT15b [5]; pH 7.5
  kcat: 0.1 s⁻¹ and 0.10 s⁻¹
VvGT15b [5]; [12]
  Km: 81 µM
VvGT15a [6]
  Michaelis constant, fold greater than the KM values for nerol and S-citronellol: about 2 fold
VvGT15a [6]; pH 7.5
  kcat: 0.12 s⁻¹
VvGT15a [6]; [12]
  Km: 63 µM
VvGT14a [7]
  aglycone liberated by enzymatic hydrolysis of the glucosides formed from the grape skin aglycone library (in words): substantial amount
VvGT16 [8]
  Km: 355 ± 14 µM
  kcat: 0.015 s⁻¹
VvGT15c [9]; [13]
  relative specific activity: 100%
VvGT15c [9]
  conversion of putative substrate (in words): glucosylated primarily
VvGT16 [1]
  relative specific activity: > 80%
VvGT15b [10]; [13]
  relative specific activity: 100%
VvGT15b [10]
  conversion of putative substrate (in words): glucosylated primarily
VvGT14a [2]
  relative specific activity: 100%
  conversion of putative substrate (in words): preferred
VvGT15a [11]; [13]
  relative specific activity: 100%
VvGT15a [11]
  conversion of putative substrate (in words): glucosylated primarily

## CCC/C=C/CO [trans 2-hexenol]
VvGT15c [9]
  conversion of putative substrate (in words): able to use
VvGT16 [1]
  conversion of putative substrate (in words): transformed
VvGT14a [2]
  conversion of putative substrate (in words): catalytic activity
VvGT15a [11]
  conversion of putative substrate (in words): able to use

## CCCCCCO [hexanol]
VvGT15c [9]
  conversion of putative substrate (in words): glucosylated primarily
VvGT16 [1]
  relative specific activity: > 80%
VvGT15b [10]
  conversion of putative substrate (in words): glucosylated primarily
VvGT14a [2]
  relative specific activity: > 80%
VvGT15a [11]
  conversion of putative substrate (in words): glucosylated primarily

## C=C(C)CCO [3-methyl-3-butenol]
VvGT14a [2]
  conversion of putative substrate (in words): catalytic activity

## CC(C)=CCCC(C)=CCCC(C)=CCO [farnesol]
VvGT14a [2]
  conversion of putative substrate (in words): catalytic activity
VvGT15a [11]
  conversion of putative substrate (in words): low activity

## OCc1ccccc1 [benzyl alcohol]
VvGT14a [7]
  aglycone liberated by enzymatic hydrolysis of the glucosides formed from the grape skin aglycone library (in words): remarkable quantities
VvGT16 [1]
  relative specific activity: > 80% and 100%
VvGT14a [2]
  conversion of putative substrate (in words): catalytic activity

## C=CC(C)(O)CCC=C(C)CO (centres unmarked) [8-hydroxylinalool]
VvGT14a [3]
  Km: 48 ± 2 µM
  kcat: 0.002 s⁻¹
VvGT15c [4]; pH 7.5
  kcat: 0.004 s⁻¹
VvGT15c [4]; [12]
  Km: 17 ± 0.2 µM
VvGT15b [5]; [12]
  Km: 33 ± 1.8 µM
  kcat: 0.003 s⁻¹
VvGT15a [6]; [12]
  Km: 32 ± 1.4 µM
  kcat: 0.003 s⁻¹
VvGT15c [9]
  conversion of putative substrate (in words): able to use
VvGT14a [2]
  conversion of putative substrate (in words): catalytic activity
VvGT15a [11]
  conversion of putative substrate (in words): able to use

## O=c1c(O)c(-c2ccc(O)c(O)c2)oc2cc(O)cc(O)c12 [quercetin]
VvGT14a [2]
  relative specific activity: < 1%

## O=c1c(O)c(-c2ccc(O)cc2)oc2cc(O)cc(O)c12 [kaempferol]
VvGT14a [2]
  relative specific activity: < 1%

## Oc1ccc(-c2[o+]c3cc(O)cc(O)c3cc2O)cc1 [pelargonodin]
VvGT14a [2]
  relative specific activity: < 1%

## CCCCCCCCO [octanol]
VvGT15c [9]
  conversion of putative substrate (in words): glucosylated primarily
VvGT15b [10]
  conversion of putative substrate (in words): glucosylated primarily
VvGT14a [2]
  relative specific activity: > 80%
VvGT15a [11]
  conversion of putative substrate (in words): glucosylated primarily

## CC(C)=CCO [3-methyl-2-butenol]
VvGT16 [1]
  conversion of putative substrate (in words): transformed
VvGT14a [2]
  conversion of putative substrate (in words): catalytic activity

## C=CCc1ccc(O)c(OC)c1 [eugenol]
VvGT14a [2]
  conversion of putative substrate (in words): catalytic activity

## CC/C=C\CCO [cis 3-hexenol]
VvGT16 [1]
  conversion of putative substrate (in words): transformed
VvGT14a [2]
  conversion of putative substrate (in words): catalytic activity

## CC(C)=CCC/C(C)=C\CO [Nerol, (Z)-3,7-dimethyl-2,6-octadien-1-ol]
VvGT14a [3]
  Km: 10 ± 0.7 µM
  kcat: 0.02 s⁻¹
VvGT15c [4]; pH 7.5
  kcat: 0.06 s⁻¹
VvGT15c [4]; [12]
  Km: 28 ± 0.9 µM
VvGT15b [5]; [12]
  Km: 40 ± 3.7 µM
  kcat: 0.03 s⁻¹
VvGT15a [6]; pH 7.5
  kcat: 0.04 s⁻¹
VvGT15a [6]; [12]
  Km: 48 ± 1.7 µM
VvGT14a [7]
  aglycone liberated by enzymatic hydrolysis of the glucosides formed from the grape skin aglycone library (in words): remarkable quantities
VvGT16 [8]
  Km: 118 ± 4.7 µM
  kcat: 0.009 s⁻¹
VvGT15c [9]
  conversion of putative substrate (in words): glucosylated primarily
VvGT16 [1]
  conversion of putative substrate (in words): transformed
VvGT15b [10]
  conversion of putative substrate (in words): glucosylated primarily
VvGT14a [2]
  relative specific activity: > 80%
VvGT15a [11]
  conversion of putative substrate (in words): glucosylated primarily

## CC(C)=CCC[C@H](C)CCO [S-citronellol]
VvGT15c [4]; [12]
  Km: 20 ± 1.6 µM
  kcat: 0.03 s⁻¹
VvGT15b [5]; [12]
  Km: 55 ± 1.3 µM
  kcat: 0.03 s⁻¹
VvGT15a [6]; pH 7.5
  kcat: 0.02 s⁻¹
VvGT15a [6]; [12]
  Km: 29 ± 3 µM
VvGT16 [1]
  efficiency of transformation of R- and S-citronellol (in words): same efficiency
VvGT15b [10]; [14]
  relative specific activity: 100%
VvGT15a [11]; [14]
  relative specific activity: 100%
